The text below walks through data of PubChem BioAssay AID2060912 (Molecular Pharmacology Branch, DTP, NCI, 2025).

For the experiment, the system named is HUVEC/MSC spheroids viability. The experiment in a line: Human HUVEC/MSC cell line growth inhibition [KRAS2].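 On viability, T/C: percent of DMSO vehicle control luminescence so 100% = untreated viability.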 Conditions: for viability, T/C: stronger effect = lower value. In outline: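 Spheroids of human HUVEC plus MSCs, without tumor cells, were treated with single agents and combinations. Each drug was tested in half-log steps down from near its clinical Cmax, or from 10 microM when Cmax was unknown. HUVEC and hMSC were used at passage </=5.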

[1] abbreviates: curve of first compound, second compound 0.0316 µM.
[2] abbreviates: curve of first compound, second compound 0.1 µM.
The mark [3] stands for this setting: curve of first compound, second compound 0.316 µM.
[4] abbreviates: curve of first compound, second compound 1 µM.
The mark [5] stands for this setting: curve of first compound, second compound 3.16 µM.
Where [6] appears, read: curve of first compound, second compound 10 µM.
Setting [7] is: second compound 0.0316 µM, first compound 0.0316 µM.
Setting [8] is: second compound 0.0316 µM, first compound 0.1 µM.
[9] abbreviates: second compound 0.1 µM, first compound 0.0316 µM.
Where [10] appears, read: second compound 0.1 µM, first compound 0.1 µM.
Setting [11] is: second compound 0.316 µM, first compound 0.0316 µM.
Where [12] appears, read: second compound 0.316 µM, first compound 0.1 µM.
The mark [13] stands for this setting: second compound 1 µM, first compound 0.0316 µM.
Where [14] appears, read: second compound 1 µM, first compound 0.1 µM.
[15] abbreviates: second compound 3.16 µM, first compound 0.0316 µM.
Setting [16] is: second compound 3.16 µM, first compound 0.1 µM.
Where [17] appears, read: second compound 10 µM, first compound 0.0316 µM.
Setting [18] is: second compound 10 µM, first compound 0.1 µM.

Where “and” joins values, the source holds several entries; their conditions need not be identical. Equal entries are not always repeated. Bounds are passed on as bounds.

Usually IC50 stands for the concentration that gives 50% inhibition. What is called viability, T/C is the result in the treated group divided by that in the control group, in per cent. For the compound `CC(C)n1nc(-c2ccc3oc(N)nc3c2)c2c(N)ncnc21` + C=CC(=O)N1CCN(c2nc(=O)n(-c3c(C)ccnc3C(C)C)c3nc(-c4c(O)cccc4F)c(F)cc23)C(C)C1, the IC50 is 3.06 nM under setting [1]; 9.63 nM under setting [2]; 100 nM under setting [3]; > 100 nM under setting [4]; > 100 nM under setting [5]; > 100 nM under setting [6]. Besides, the viability, T/C (second compound 0.0316 µM, first compound 0.000316 µM) was 88.3%; the viability, T/C (second compound 0.0316 µM, first compound 0.001 µM) is 76.4%; the viability, T/C (second compound 0.0316 µM, first compound 0.00316 µM) was 48.8%; the viability, T/C (second compound 0.0316 µM, first compound 0.01 µM) was 49.7%; the viability, T/C under setting [7] was 43.2%; the viability, T/C under setting [8] was 44.1%. In addition, the viability, T/C is, setting by setting: (second compound 0.1 µM, first compound 0.000316 µM) 88.7%; (second compound 0.1 µM, first compound 0.001 µM) 59.8%; (second compound 0.1 µM, first compound 0.00316 µM) 63.4%; (second compound 0.1 µM, first compound 0.01 µM) 48.5%; under setting [9], 50.4%; under setting [10], 36.2%. Also, the viability, T/C is, setting by setting: (second compound 0.316 µM, first compound 0.000316 µM) 79.4%; (second compound 0.316 µM, first compound 0.001 µM) 86.6%; (second compound 0.316 µM, first compound 0.00316 µM) 53.5%; (second compound 0.316 µM, first compound 0.01 µM) 52.5%; under setting [11], 64.4%; under setting [12], 50.6%. Moreover, the viability, T/C reads like this: (second compound 1 µM, first compound 0.000316 µM) 94%; (second compound 1 µM, first compound 0.001 µM) 73.1%; (second compound 1 µM, first compound 0.00316 µM) 65%; (second compound 1 µM, first compound 0.01 µM) 51.9%; under setting [13], 65%; under setting [14], 53.5%. In addition, the viability, T/C reads like this: (second compound 3.16 µM, first compound 0.000316 µM) 86.2%; (second compound 3.16 µM, first compound 0.001 µM) 74.9%; (second compound 3.16 µM, first compound 0.00316 µM) 66.6%; (second compound 3.16 µM, first compound 0.01 µM) 60.6%; under setting [15], 62.3%; under setting [16], 56.4%. In addition, the viability, T/C by setting is: (second compound 10 µM, first compound 0.000316 µM) 75%; (second compound 10 µM, first compound 0.001 µM) 67.4%; (second compound 10 µM, first compound 0.00316 µM) 72.9%; (second compound 10 µM, first compound 0.01 µM) 76.3%; under setting [17], 60.4%; under setting [18], 54.9%.

For `O=C(c1cc(Cc2n[nH]c(=O)c3ccccc23)ccc1F)N1CCN(C(=O)C2CC2)CC1` + COc1cc2nc(C)nc(NC(C)c3cc(N)cc(C(F)(F)F)c3)c2cc1OC1CCOC1, the IC50 by setting is: under setting [1], > 10000 nM; under setting [2], > 10000 nM; under setting [3], > 10000 nM; under setting [4], > 10000 nM; under setting [5], > 10000 nM; under setting [6], > 10000 nM. Besides, the viability, T/C reads like this: under setting [7], 104%; under setting [8], 108%; (second compound 0.0316 µM, first compound 0.316 µM) 102%; (second compound 0.0316 µM, first compound 1 µM) 94.2%; (second compound 0.0316 µM, first compound 3.16 µM) 89.7%; (second compound 0.0316 µM, first compound 10 µM) 99.3%. The viability, T/C is, setting by setting: under setting [9], 108%; under setting [10], 101%; (second compound 0.1 µM, first compound 0.316 µM) 90.5%; (second compound 0.1 µM, first compound 1 µM) 89.5%; (second compound 0.1 µM, first compound 3.16 µM) 90.3%; (second compound 0.1 µM, first compound 10 µM) 83.9%. Also, the viability, T/C reads like this: under setting [11], 93.8%; under setting [12], 92.9%; (second compound 0.316 µM, first compound 0.316 µM) 101%; (second compound 0.316 µM, first compound 1 µM) 93.8%; (second compound 0.316 µM, first compound 3.16 µM) 101%; (second compound 0.316 µM, first compound 10 µM) 115%. In addition, the viability, T/C under setting [13] was 86.5%; the viability, T/C under setting [14] was 115%; the viability, T/C (second compound 1 µM, first compound 0.316 µM) was 93.8%; the viability, T/C (second compound 1 µM, first compound 1 µM) is 88.8%; the viability, T/C (second compound 1 µM, first compound 3.16 µM) is 89.5%; the viability, T/C (second compound 1 µM, first compound 10 µM) was 93.2%. Besides, the viability, T/C under setting [15] was 75%; the viability, T/C under setting [16] is 101%; the viability, T/C (second compound 3.16 µM, first compound 0.316 µM) was 93%; the viability, T/C (second compound 3.16 µM, first compound 1 µM) is 82.2%; the viability, T/C (second compound 3.16 µM, first compound 3.16 µM) is 84.8%; the viability, T/C (second compound 3.16 µM, first compound 10 µM) is 101%. Moreover, the viability, T/C was 72.3% under setting [17]; 76.5% under setting [18]; 79.4% (second compound 10 µM, first compound 0.316 µM); 68.2% (second compound 10 µM, first compound 1 µM); 77.2% (second compound 10 µM, first compound 3.16 µM); 63.2% (second compound 10 µM, first compound 10 µM).

On to `CCN1CCN(Cc2ccc(Nc3ncc(F)c(-c4cc(F)c5nc(C)n(C(C)C)c5c4)n3)nc2)CC1`, for which the viability, T/C reads like this: (compound 0.01 µM) 86.6% [middle of 5 runs]; (compound 0.0316 µM) 87.7% [middle of 5 runs]; (compound 0.1 µM) 83.9% [middle of 5 runs]; (compound 0.316 µM) 99.4% [middle of 5 runs]. For the setting “curve of compound”, the IC50 was > 1000 nM.

With `CC(C)NCC(C(=O)N1CCN(c2ncnc3c2C(C)CC3O)CC1)c1ccc(Cl)cc1` (stereo not drawn), the viability, T/C was 83.5% [middle of 5 runs] (compound 0.316 µM), 71.7% [middle of 5 runs] (compound 1 µM) and 51.3% [middle of 5 runs] (compound 10 µM). The concentration for half-maximal inhibition (IC50) (curve of compound) is > 10000 nM and 2610 nM and 9300 nM.
